Laboratory results published in patent publication US9232800B2.
Marks after values point to notes of the source that are not given here.

Test system: Meloidogyne incognita nematodes
Assay: Miniaturized greenhouse nematicidal efficacy assay (cucumber seedlings in sand, root gall rating)
[1] = 0.5 ppm, test b, average of triplicate gall ratings (scale 0-3, % root mass galled)
[2] = 1 ppm, test b, average of triplicate gall ratings (scale 0-3, % root mass galled)
[3] = 8 ppm, test b, average of triplicate gall ratings (scale 0-3, % root mass galled)
[4] = 0.5 ppm, test a, average of triplicate gall ratings (scale 0-3, % root mass galled)
[5] = 1 ppm, test a, average of triplicate gall ratings (scale 0-3, % root mass galled)
[6] = 8 ppm, test a, average of triplicate gall ratings (0=0-5%, 1=6-20%, 2=21-50%, 3=51-100% root mass galled), harvest 10 to 12 days after inoculation

Molecule | 8/1/0.5 ppm gall ratings* [1] | 8/1/0.5 ppm gall ratings* [2] | 8/1/0.5 ppm gall ratings* [3] | 8/1/0.5 ppm gall ratings* [4] | 8/1/0.5 ppm gall ratings* [5] | 8/1/0.5 ppm gall ratings* [6]
Clc1cccc(C2NC(c3cccs3)=NO2)c1 (stereo not shown) [IIa-ii, 5-(3-chlorophenyl)-3-(thiophen-2-yl)-4,5-dihydro-1,2,4-oxadiazole] | 3.00 | 2.33 | 0.33 | – | – | –
Cc1cc(Cl)ccc1C1NC(c2ccco2)=NO1 (stereo not shown) [IIa-iii, 5-(4-chloro-2-methylphenyl)-3-(furan-2-yl)-4,5-dihydro-1,2,4-oxadiazole] | 2.33 | 1.67 | 0.00 | – | – | –
c1ccc(C2=NOC(c3cccs3)N2)cc1 (stereo not shown) [Ia-i, 3-phenyl-5-(thiophen-2-yl)-4,5-dihydro-1,2,4-oxadiazole] | 2.67 | 1.67 | 0.00 | 2.33 | 1.33 | 0.00
c1ccc(C2=NOC(c3ccco3)N2)cc1 (stereo not shown) [Ia-ii, 5-(furan-2-yl)-3-phenyl-4,5-dihydro-1,2,4-oxadiazole] | 2.33 | 0.67 | 0.00 | 2.67 | 2.00 | 0.00
Clc1ccc(C2=NOC(c3ccco3)N2)cc1 (stereo not shown) [Ia-iii, 3-(4-chlorophenyl)-5-(furan-2-yl)-4,5-dihydro-1,2,4-oxadiazole] | 3.00 | 1.67 | 0.00 | – | – | –
Cc1cc(Cl)ccc1C1=NOC(c2ccco2)N1 (stereo not shown) [Ia-iv, 3-(4-chloro-2-methylphenyl)-5-(furan-2-yl)-4,5-dihydro-1,2,4-oxadiazole] | 2.67 | 1.67 | 0.00 | – | – | –
Clc1ccc(C2=NOC(c3ccco3)N2)c(Cl)c1 (stereo not shown) [Ia-ix, 3-(2,4-dichlorophenyl)-5-(furan-2-yl)-4,5-dihydro-1,2,4-oxadiazole] | 3.00 | 2.33 | 0.00 | – | – | –
Fc1ccc(C2=NOC(c3cccs3)N2)cc1 (stereo not shown) [Ia-v, 3-(4-fluorophenyl)-5-(thiophen-2-yl)-4,5-dihydro-1,2,4-oxadiazole] | 1.67 | 0.00 | 0.00 | – | – | –
Clc1ccc(C2=NOC(c3ccoc3)N2)cc1 (stereo not shown) [Ib-iv, 3-(4-chlorophenyl)-5-(furan-3-yl)-4,5-dihydro-1,2,4-oxadiazole] | 2.67 | 1.33 | 0.00 | – | – | –
Abamectin [reference compound] | – | – | – | – | 1.67^a | –
